Residue numbers refer to the chain shown, from its start. Where a SMILES comes first, the peptide text is derived from it.
Columns and labels:
Format in all cases: cell-based, rabbit
wild-type PepT1 = target: T1, wild-type PepT1 (Oryctolagus cuniculus, UniProt P36836); assay: Diethylpyrocarbonate inhibition of PepT1-mediated dipeptide uptake and protection by substrates; details: 5 mM present during 1 mM DEPC incubation (15 min), uptake measured over 1 h
T1 construct: expressed in transfected cells; host or cells: Xenopus laevis oocytes injected with cRNA
T1 sequence (P36836 1-707): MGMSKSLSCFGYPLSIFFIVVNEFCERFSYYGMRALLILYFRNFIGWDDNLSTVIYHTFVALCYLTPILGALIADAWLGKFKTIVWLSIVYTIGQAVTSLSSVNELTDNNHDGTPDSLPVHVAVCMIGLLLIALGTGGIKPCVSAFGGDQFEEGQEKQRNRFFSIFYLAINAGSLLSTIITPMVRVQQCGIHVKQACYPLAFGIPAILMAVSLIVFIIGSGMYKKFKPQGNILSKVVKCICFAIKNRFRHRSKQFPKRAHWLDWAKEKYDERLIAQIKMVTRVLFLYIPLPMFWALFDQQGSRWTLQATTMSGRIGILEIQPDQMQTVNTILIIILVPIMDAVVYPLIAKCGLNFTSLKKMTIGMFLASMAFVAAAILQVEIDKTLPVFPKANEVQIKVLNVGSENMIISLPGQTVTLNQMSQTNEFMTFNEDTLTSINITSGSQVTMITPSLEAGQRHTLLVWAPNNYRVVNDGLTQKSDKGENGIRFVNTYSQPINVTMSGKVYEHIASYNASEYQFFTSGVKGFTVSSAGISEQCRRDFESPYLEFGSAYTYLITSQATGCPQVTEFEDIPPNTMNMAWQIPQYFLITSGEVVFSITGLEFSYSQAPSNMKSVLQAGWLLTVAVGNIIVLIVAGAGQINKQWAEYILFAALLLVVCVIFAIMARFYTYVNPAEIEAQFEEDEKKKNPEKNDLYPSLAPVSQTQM
Method: (§1) Zero-trans uptake of [^3H]-D-Phe-L-Gln (17.4 Ci/mmole, custom synthesised, Cambridge Research Biochemicals, Stockton-on-Tees, UK) was performed as previously described ([Meredith, 2004]). Briefly, 5 oocytes were incubated in 100 μl of uptake medium (95 mM NaCl, 2 mM KCl, 1 mM CaCl2, 0.42 mM MgCl2, 10 mM Tris/Hepes pH 7.4 or Tris/Mes pH 5.5) with tracer (0.4 μM) [^3H]-D-Phe-L-Gln. After incubation, the oocytes were washed sequentially five times in 1 ml of ice-cold 120 mM NaCl solution, lysed individually with 100 μl 2% (w/v) SDS and liquid scintillation counted. As a control non-injected oocytes were also incubated in uptake medium with [^3H]-D-Phe-L-Gln as above.
Diethylpyrocarbonate (DEPC) inhibition of PepT1 was performed using a similar protocol to that of [Terada, Saito, and Inui (1998)]. Briefly, PepT1 oocytes were preincubated with 1 mM DEPC for 15 min at pHout 5.5 in the absence or presence of the PepT1 substrates Gly-L-Gln, N-Acetyl-Phe ([Meredith et al., 2000]), and L-Ala-Tyramine (custom synthesised) and the non-substrate Tyr (all 5 mM). The oocytes were then washed in uptake medium before uptake assays were performed as detailed above.

R282A-PepT1 [1] = target: T2, R282A-PepT1 (Oryctolagus cuniculus, UniProt P36836, R282A); assay: Inhibition of [3H]-D-Phe-L-Gln uptake into Xenopus oocytes expressing R282A-PepT1 (competition, Ki); details: pHout 5.5, 0.4 μM [3H]-D-Phe-L-Gln
T2 construct: expressed in transfected cells; host or cells: Xenopus laevis oocytes injected with cRNA
T2 sequence (P36836 1-707 R282A): T1 sequence (P36836 1-707) with R282A
Method: as §1
The affinity of wild-type and mutant PepT1 were assessed by competition studies with 0.4 μM [^3H]-D-Phe-L-Gln and Gly-L-Gln present in the uptake medium in concentrations from 0 to 2 mM using the protocol above, and the Ki calculated using the method of [Deves and Boyd (1989)].

R282A-PepT1 [2] = target: T2, R282A-PepT1; assay: Apparent charge:peptide stoichiometry (two-electrode voltage clamp current / radiolabelled uptake), R282A-PepT1; details: R282A-PepT1, pHout 5.5, resting membrane potential
Method: Measurements of membrane potential were made by impaling oocytes with a single glass microelectrode (Intra 767 amplifier, WPI, Stevenage, Hertfordshire, UK) perfused in uptake medium (as above) with or without 0.4 μM D-Phe-L-Gln (synthesised in house), 0.6 mM Gly-L-Gln (Sigma, Poole, UK) or 10 mM 4-aminobenzoic acid (4-AMBA, Sigma). Two-electrode voltage clamp (TEVC) was performed by placing oocytes in a 0.1 ml recording chamber and perfusing with uptake solution (pH 5.5 or 7.4) at a rate of 15 ml/min. Oocytes were impaled by two agarose-cushioned microelectrodes filled with 3 M KCl (0.5–2.0 MΩ) and voltage-clamped at −60 mV using a Geneclamp 500B amplifier and PCLAMP 8.1 software (Axon Instruments, CA, USA). The holding potential was stepped from −60 mV over the range of −150 to +50 mV in 10 mV steps, each pulse lasting 100 ms, and returning to −60 mV in between test voltage pulses. Typically traces were filtered at 1 kHz during recording and digitized at 0.5–5 kHz using the DigiData 1200 interface (Axon Instruments, CA, USA). All experiments were carried out at room temperature.
In order to calculate the apparent charge:substrate stoichiometry, the peptide induced current that was measured by two-electrode voltage clamp at the oocyte resting membrane potential was divided by the radiolabelled dipeptide uptake in oocytes from the same preparation. […]

Row | SMILES | protection of PepT1 from DEPC inhibition (wild-type PepT1) | Ki (R282A-PepT1 [1]) | apparent stoichiometry (charge:peptide), normalised to wild-type 1:1 (R282A-PepT1 [2])
1 | NCC(=O)N[C@@H](CCC(N)=O)C(=O)O [Gly-L-Gln] (H-Gly-Gln-OH) | largely prevented | 300 ± 170 µM | 
2 | NC(=O)CC[C@H](NC(=O)[C@H](N)Cc1ccccc1)C(=O)O [D-Phe-L-Gln] |  |  | 5

— paper PMC2267855, “Site-directed mutagenesis of Arginine282 suggests how protons and peptides are co-transported by rabbit PepT1” (The International Journal of Biochemistry & Cell Biology, 2008)
